Earlier results on one compound are cited in paper PMC7998926 (Microorganisms, 2021).

In the data set the test system is MARV. The conditions noted are these: mouse, in vivo; cited from earlier work.

As for `CC(C)COCC(CN(Cc1ccccc1)c1ccccc1)N1CCCC1` (stereo not shown) [Bepridil], the protection result was “strongly protected”.
